Results published in ChEMBL document CHEMBL1140148, “Structure-activity studies on a series of a 2-aminopyrimidine-containing histamine H4 receptor ligands” (J Med Chem, 2008).
In brackets after ≈: the same amount, converted by molar mass. Activity calls are given as the source filed them. The calls are words filed in the database; no cut-off is given here.

Key:
[1] = target: T1, Histamine H4 receptor (Homo sapiens, UniProt Q9H3N8); assay: Agonist activity at human histamine H4 receptor expressed in HEK293 cells coexpressing Gqi5 protein assessed as calcium flux by FLIPR assay relative to histamine; format: functional, cell-based
T1 sequence (Q9H3N8 whole entry): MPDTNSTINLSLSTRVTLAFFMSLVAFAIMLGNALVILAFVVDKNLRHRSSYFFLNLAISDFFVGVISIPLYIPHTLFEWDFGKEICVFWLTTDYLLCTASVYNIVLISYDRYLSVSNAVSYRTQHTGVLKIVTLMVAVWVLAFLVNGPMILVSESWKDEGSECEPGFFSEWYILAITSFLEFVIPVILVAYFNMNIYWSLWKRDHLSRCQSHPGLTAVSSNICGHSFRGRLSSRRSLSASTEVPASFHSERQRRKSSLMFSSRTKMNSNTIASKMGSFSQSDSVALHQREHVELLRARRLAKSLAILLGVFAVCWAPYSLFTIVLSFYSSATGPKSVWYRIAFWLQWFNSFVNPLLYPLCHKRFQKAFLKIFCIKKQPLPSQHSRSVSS

[2] = target: Histamine H4 receptor (Rattus norvegicus) (UniProt Q91ZY1); assay: (§1) Agonist activity at rat histamine H4 receptor expressed in HEK293 cells coexpressing Gqi5 protein assessed as calcium flux by FLIPR assay; format: functional, cell-based
Sequence of Histamine H4 receptor (Rattus norvegicus) (Q91ZY1 whole entry): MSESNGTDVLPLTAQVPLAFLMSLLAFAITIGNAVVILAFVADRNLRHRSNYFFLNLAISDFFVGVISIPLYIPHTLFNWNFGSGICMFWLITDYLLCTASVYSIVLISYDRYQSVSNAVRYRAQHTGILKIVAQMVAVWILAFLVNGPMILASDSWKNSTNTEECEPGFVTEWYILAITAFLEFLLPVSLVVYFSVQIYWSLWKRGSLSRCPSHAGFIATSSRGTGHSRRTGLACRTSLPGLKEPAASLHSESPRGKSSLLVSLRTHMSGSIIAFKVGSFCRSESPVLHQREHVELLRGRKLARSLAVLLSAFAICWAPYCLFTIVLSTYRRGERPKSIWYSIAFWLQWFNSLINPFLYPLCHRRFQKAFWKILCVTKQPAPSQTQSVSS

[3] = target: T1, Histamine H4 receptor; assay: Agonist activity at human histamine H4 receptor expressed in HEK293 cells coexpressing Gqi5 protein assessed as calcium flux by FLIPR assay; format: functional, cell-based
[4] = target: Histamine H4 receptor (Rattus norvegicus) (UniProt Q91ZY1); settings: HEK293
[5] = target: T1, Histamine H4 receptor; settings: HEK293
[6] = Cmax in rat at 1 mg/kg, iv; format: ADME, organism-based; parameters: dose 1 mg/kg, route intravenous; settings: in vivo
[7] = target: Histamine H3 receptor (Rattus norvegicus, UniProt Q9QYN8); assay: Binding affinity to rat histamine H3 receptor
[8] = Binding affinity to T-type voltage gated calcium channel
[9] = target: Alpha-2C adrenergic receptor (Homo sapiens, UniProt P18825); assay: Binding affinity to adrenergic Alpha-2C receptor
Sequence of Alpha-2C adrenergic receptor (P18825 whole entry): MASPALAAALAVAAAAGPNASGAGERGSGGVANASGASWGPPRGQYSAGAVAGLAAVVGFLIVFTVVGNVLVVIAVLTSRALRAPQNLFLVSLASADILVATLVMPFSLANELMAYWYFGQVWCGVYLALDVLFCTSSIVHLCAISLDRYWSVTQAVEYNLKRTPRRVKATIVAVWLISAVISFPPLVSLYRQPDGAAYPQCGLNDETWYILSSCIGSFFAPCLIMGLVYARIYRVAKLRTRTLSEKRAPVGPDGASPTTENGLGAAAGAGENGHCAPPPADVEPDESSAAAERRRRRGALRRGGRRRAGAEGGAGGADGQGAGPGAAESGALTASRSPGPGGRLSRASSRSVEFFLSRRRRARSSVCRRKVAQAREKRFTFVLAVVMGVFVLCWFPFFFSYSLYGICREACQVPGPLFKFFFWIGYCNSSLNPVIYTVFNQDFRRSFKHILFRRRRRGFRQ

[10] = target: T2, 5-hydroxytryptamine receptor 2A (Homo sapiens, UniProt P28223); assay: Inhibition of 5HT2A receptor at 10 umol
T2 sequence (P28223 whole entry): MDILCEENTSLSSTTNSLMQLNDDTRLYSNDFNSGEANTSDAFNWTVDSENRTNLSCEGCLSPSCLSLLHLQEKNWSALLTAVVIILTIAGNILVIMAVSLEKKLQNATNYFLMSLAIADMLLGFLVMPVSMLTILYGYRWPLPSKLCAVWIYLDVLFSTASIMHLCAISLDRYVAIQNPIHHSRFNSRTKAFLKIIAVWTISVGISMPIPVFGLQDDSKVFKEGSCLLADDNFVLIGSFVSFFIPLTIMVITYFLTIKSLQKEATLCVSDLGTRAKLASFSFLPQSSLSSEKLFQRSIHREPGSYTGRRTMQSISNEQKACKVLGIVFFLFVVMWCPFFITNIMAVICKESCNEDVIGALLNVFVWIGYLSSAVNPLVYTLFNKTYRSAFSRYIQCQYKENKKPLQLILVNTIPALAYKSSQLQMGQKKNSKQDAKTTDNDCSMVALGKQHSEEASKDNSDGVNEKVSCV

[11] = Drug level in rat brain at 30 umol/kg, ip after 30 mins; format: ADME, organism-based; settings: read-out: Drug uptake
[12] = Bioavailability in rat at 1 mg/kg, po; format: ADME, organism-based; settings: in vivo
[13] = species on record: Rattus norvegicus; assay: Antiinflammatory activity against carrageenan-induced hyperalgesia in rat assessed as increase in paw withdrawal by measuring plasma free fraction potency; format: functional, organism-based
[14] = Binding affinity to NMDA receptor
[15] = Binding affinity to opioid receptor
[16] = target: T3, 5-hydroxytryptamine receptor 1A (Homo sapiens, UniProt P08908); assay: Binding affinity to 5HT1A receptor
T3 sequence (P08908 whole entry): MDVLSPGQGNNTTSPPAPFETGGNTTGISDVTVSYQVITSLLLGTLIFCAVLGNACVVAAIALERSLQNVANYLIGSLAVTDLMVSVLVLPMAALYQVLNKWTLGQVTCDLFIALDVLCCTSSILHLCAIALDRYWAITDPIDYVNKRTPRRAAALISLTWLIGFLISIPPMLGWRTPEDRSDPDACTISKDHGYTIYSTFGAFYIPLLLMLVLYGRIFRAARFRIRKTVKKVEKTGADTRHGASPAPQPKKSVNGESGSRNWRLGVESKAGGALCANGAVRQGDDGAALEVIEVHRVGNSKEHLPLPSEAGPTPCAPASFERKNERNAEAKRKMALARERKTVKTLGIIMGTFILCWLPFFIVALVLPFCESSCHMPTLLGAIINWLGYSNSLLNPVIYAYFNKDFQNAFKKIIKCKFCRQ

[17] = Bioavailability in mouse at 2.5 mg/kg, po; format: ADME, organism-based; settings: in vivo
[18] = system: Rattus norvegicus; assay: Antiinflammatory activity against carrageenan-induced thermal hyperalgesia in rat assessed as increase in paw withdrawal at 100 umol/kg, ip relative to control; format: functional
[19] = Terminal volume of distribution in rat at 1 mg/kg, iv; format: ADME, organism-based; parameters: dose 1 mg/kg, route intravenous; settings: in vivo, read-out: Vbeta
[20] = target: Histamine H3 receptor (Homo sapiens, UniProt Q9Y5N1); assay: Binding affinity to human histamine H3 receptor
[21] = system: Mus musculus; assay: Antiinflammatory activity in ip dosed CD1/ICR mouse assessed as reduction of clobenpropit-induced itching; format: functional
[22] = target: T4, Histamine H4 receptor (Rattus norvegicus, UniProt Q91ZY1); assay: as §1; format: functional, cell-based
T4 sequence (Q91ZY1 whole entry): as the sequence (Q91ZY1 whole entry) above

[23] = Cmax in mouse at 2.5 mg/kg, iv; format: ADME, organism-based; parameters: dose 2.5 mg/kg, route intravenous; settings: in vivo
[24] = target: Histamine H4 receptor (Mus musculus, UniProt Q91ZY2); assay: Agonist activity at mouse histamine H4 receptor expressed in HEK293 cells coexpressing Gqi5 protein assessed as calcium flux by FLIPR assay; format: functional, cell-based
Sequence of Histamine H4 receptor (Mus musculus, UniProt Q91ZY2) (Q91ZY2 whole entry): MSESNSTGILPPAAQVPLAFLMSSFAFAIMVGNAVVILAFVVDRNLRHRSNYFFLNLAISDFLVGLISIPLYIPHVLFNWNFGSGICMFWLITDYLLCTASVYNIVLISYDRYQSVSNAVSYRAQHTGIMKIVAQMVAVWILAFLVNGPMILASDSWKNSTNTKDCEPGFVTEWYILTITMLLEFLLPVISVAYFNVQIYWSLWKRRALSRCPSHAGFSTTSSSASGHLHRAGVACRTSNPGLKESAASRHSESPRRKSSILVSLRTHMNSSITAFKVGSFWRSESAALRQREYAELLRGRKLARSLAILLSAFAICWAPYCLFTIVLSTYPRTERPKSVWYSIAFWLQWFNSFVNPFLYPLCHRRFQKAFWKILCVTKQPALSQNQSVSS

[25] = Half life in mouse at 2.5 mg/kg, po; format: ADME, organism-based; parameters: dose 2.5 mg/kg, route oral; settings: in vivo
[26] = Plasma concentration in rat at 30 umol/kg, ip after 30 mins; format: ADME, organism-based
[27] = Inhibition of histamine-induced shape change in BALB/c mouse BMMC by gated autofluorescence forward scatter; format: functional
[28] = Terminal volume of distribution in mouse at 2.5 mg/kg, iv; format: ADME, organism-based; parameters: dose 2.5 mg/kg, route intravenous; settings: in vivo, read-out: Vbeta
[29] = target: 5-hydroxytryptamine receptor 1A (Homo sapiens) (UniProt P08908); assay: Inhibition of 5HT1A receptor at 10 umol
Sequence of 5-hydroxytryptamine receptor 1A (Homo sapiens) (P08908 whole entry): as the sequence (P08908 whole entry) above

[30] = target: Histamine H4 receptor (Mus musculus) (UniProt Q91ZY2); assay: Agonist activity at mouse histamine H4 receptor expressed in HEK293 cells coexpressing Gqi5 protein assessed as calcium flux by FLIPR assay relative to histamine; format: functional, cell-based
Sequence of Histamine H4 receptor (Mus musculus) (Q91ZY2 whole entry): as the sequence (Q91ZY2 whole entry) above

[31] = target: T3, 5-hydroxytryptamine receptor 1A; assay: Agonist activity at 5HT1A receptor expressed in CHO cells by GTPgammaS binding assay; format: functional, cell-based
[32] = system: Rattus norvegicus; assay: Plasma concentration in carrageenan-induced rat at 10 umol/kg, ip; format: ADME, organism-based; settings: in vivo
[33] = Cmax in mouse at 2.5 mg/kg, po; format: ADME, organism-based; parameters: dose 2.5 mg/kg, route oral; settings: in vivo
[34] = target: Alpha-2A adrenergic receptor (Homo sapiens, UniProt P08913); assay: Binding affinity to adrenergic alpha2A receptor
[35] = Binding affinity to neuronal nicotine receptor
[36] = Plasma concentration in mouse at 25 umol/kg, ip after 30 mins; format: ADME, organism-based
[37] = system: Rattus norvegicus; assay: Antiinflammatory activity against carrageenan-induced thermal hyperalgesia in ip dosed rat assessed as increase in paw withdrawal; format: functional
[38] = system: Rattus norvegicus; assay: Antiinflammatory activity against carrageenan-induced thermal hyperalgesia in rat assessed as increase in paw withdrawal at 30 umol/kg, ip relative to control; format: functional
[39] = Plasma clearance in rat at 1 mg/kg, iv; format: ADME, organism-based; parameters: dose 1 mg/kg, route intravenous
[40] = target: Cannabinoid receptor 1 (Homo sapiens, UniProt P21554); assay: Binding affinity to cannabinoid receptor
[41] = target: P2X purinoceptor 7 (Mus musculus, UniProt Q9Z1M0); assay: Binding affinity to mouse P2X7 channel
Sequence of P2X purinoceptor 7 (Mus musculus, UniProt Q9Z1M0) (Q9Z1M0 whole entry): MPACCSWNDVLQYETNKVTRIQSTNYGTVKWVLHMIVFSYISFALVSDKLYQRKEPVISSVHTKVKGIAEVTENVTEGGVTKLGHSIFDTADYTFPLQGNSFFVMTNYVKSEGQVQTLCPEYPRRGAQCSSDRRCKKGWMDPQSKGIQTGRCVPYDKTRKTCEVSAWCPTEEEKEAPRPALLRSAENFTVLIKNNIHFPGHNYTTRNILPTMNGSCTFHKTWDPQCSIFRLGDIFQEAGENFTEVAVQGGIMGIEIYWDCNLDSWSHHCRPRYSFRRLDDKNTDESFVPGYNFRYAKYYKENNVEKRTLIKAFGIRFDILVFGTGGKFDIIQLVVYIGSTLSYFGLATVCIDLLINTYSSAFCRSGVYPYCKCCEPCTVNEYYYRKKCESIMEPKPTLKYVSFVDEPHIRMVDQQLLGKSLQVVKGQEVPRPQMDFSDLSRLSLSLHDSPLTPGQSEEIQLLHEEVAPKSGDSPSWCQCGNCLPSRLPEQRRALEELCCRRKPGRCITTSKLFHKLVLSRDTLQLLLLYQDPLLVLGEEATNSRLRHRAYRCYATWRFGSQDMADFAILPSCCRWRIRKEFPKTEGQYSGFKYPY

[42] = target: 5-hydroxytryptamine receptor 1D (Homo sapiens, UniProt P28221); assay: Binding affinity to 5HT1D receptor
Sequence of 5-hydroxytryptamine receptor 1D (P28221 whole entry): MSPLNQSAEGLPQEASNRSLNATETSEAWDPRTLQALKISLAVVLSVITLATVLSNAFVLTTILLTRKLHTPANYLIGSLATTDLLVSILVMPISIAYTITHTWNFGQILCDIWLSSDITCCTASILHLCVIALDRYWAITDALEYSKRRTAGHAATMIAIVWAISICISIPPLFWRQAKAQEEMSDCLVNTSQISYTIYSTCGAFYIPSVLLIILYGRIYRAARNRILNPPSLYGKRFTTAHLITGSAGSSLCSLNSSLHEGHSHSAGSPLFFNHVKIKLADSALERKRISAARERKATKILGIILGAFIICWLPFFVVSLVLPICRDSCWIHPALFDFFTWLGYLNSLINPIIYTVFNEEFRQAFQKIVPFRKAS

[43] = Binding affinity to cyclooxygenase
[44] = system: Mus musculus; assay: Antiinflammatory activity in zymosan-induced peritonitis in sc dosed BALB/c mouse model assessed as decrease in myeloperoxidase activity in peritoneal lavage; format: functional
[45] = system: Rattus norvegicus; assay: Toxicity in rat assessed as effect on locomotor activity by rotarod test upto 300 umol/kg; format: organism-based; settings: in vivo
[46] = Inhibition of adrenergic alpha2 receptor at 10 umol
[47] = target: P2X purinoceptor 7 (Homo sapiens, UniProt Q99572); assay: Binding affinity to human P2X7 channel
[48] = Tmax in rat at 1 mg/kg, po; format: ADME, organism-based; parameters: dose 1 mg/kg, route oral; settings: in vivo
[49] = target: T4, Histamine H4 receptor; assay: Agonist activity at rat histamine H4 receptor expressed in HEK293 cells coexpressing Gqi5 protein by GTPgammaS assay; format: functional, cell-based
[50] = target: 5-hydroxytryptamine receptor 1A (Homo sapiens) (UniProt P08908); assay: Agonist activity at 5HT1A receptor expressed in CHO cells by GTPgammaS binding assay relative to serotonin; format: functional, cell-based
[51] = target: 5-hydroxytryptamine receptor 1B (Homo sapiens) (UniProt P28222); assay: Inhibition of 5HT1B receptor at 10 umol
Sequence of 5-hydroxytryptamine receptor 1B (Homo sapiens) (P28222 whole entry): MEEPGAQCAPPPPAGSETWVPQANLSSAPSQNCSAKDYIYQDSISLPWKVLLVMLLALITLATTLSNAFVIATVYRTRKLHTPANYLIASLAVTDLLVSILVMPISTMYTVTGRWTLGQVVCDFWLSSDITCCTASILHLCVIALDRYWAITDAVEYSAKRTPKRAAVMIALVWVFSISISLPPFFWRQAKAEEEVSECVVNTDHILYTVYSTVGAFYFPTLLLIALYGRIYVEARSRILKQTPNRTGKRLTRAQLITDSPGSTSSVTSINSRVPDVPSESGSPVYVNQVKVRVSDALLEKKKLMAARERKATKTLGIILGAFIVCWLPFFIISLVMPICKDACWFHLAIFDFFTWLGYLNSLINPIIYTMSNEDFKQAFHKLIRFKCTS

[52] = target: T5, 5-hydroxytryptamine receptor 7 (Homo sapiens, UniProt P34969); assay: Binding affinity to 5HT7 receptor
T5 sequence (P34969 whole entry): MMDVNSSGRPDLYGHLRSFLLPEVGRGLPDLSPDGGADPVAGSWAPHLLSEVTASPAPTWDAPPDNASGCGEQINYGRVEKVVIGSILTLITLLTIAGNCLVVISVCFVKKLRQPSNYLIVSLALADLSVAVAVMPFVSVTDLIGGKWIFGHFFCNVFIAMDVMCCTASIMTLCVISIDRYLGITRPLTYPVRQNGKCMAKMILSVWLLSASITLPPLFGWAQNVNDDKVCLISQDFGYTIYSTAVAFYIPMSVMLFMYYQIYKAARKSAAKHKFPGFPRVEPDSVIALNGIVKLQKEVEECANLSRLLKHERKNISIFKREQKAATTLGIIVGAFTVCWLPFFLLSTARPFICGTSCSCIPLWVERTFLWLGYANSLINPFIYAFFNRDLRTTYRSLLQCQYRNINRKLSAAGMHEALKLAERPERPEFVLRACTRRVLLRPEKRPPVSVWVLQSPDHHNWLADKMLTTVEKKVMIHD

[53] = system: Rattus norvegicus; assay: Plasma concentration in rat at 100 umol/kg, ip; format: ADME, organism-based; settings: in vivo
[54] = Protein binding in ip dosed rat plasma; format: ADME, organism-based; settings: read-out: PPB (converted)
[55] = system: Rattus norvegicus; assay: Plasma concentration in rat at 30 umol/kg, ip; format: ADME, organism-based; settings: in vivo
[56] = target: T5, 5-hydroxytryptamine receptor 7; assay: Inhibition of 5HT7 receptor at 10 umol
[57] = Tmax in mouse at 2.5 mg/kg, po; format: ADME, organism-based; parameters: dose 2.5 mg/kg, route oral; settings: in vivo
[58] = Cmax in rat at 1 mg/kg, po; format: ADME, organism-based; parameters: dose 1 mg/kg, route oral; settings: in vivo
[59] = Plasma clearance in mouse at 2.5 mg/kg, iv; format: ADME, organism-based; parameters: dose 2.5 mg/kg, route intravenous
[60] = target: T4, Histamine H4 receptor; assay: Displacement of [3H]histamine from rat histamine H4 receptor expressed in HEK293 cells; format: cell-based
[61] = target: T2, 5-hydroxytryptamine receptor 2A; assay: Binding affinity to 5HT2A receptor
[62] = system: Mus musculus; assay: Antiinflammatory activity in ip dosed CD1/ICR mouse assessed as reduction of clobenpropit-induced itching at 0.1 to 10 umol administered into scruff of neck; format: functional, organism-based
[63] = target: 5-hydroxytryptamine receptor 2C (Homo sapiens, UniProt P28335); assay: Binding affinity to 5HT2C receptor
Sequence of 5-hydroxytryptamine receptor 2C (P28335 whole entry): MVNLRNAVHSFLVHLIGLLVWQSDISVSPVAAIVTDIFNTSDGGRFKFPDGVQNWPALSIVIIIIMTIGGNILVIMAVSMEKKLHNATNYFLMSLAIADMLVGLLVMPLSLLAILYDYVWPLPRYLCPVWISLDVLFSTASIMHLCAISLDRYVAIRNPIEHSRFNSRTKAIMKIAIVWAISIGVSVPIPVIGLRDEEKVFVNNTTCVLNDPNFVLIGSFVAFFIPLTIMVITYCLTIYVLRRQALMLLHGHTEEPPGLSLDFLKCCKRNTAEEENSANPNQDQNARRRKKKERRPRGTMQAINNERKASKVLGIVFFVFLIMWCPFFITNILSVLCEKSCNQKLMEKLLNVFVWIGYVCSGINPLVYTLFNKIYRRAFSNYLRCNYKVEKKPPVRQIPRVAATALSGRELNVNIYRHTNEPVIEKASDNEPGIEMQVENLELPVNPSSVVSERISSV

CN1CCN(c2cc(-c3ccc(C#N)cc3)cc(N)n2)CC1
Efficacy [1]: 56%
pKb [2]: 5.39
EC50 [3]: 2.34 µM

CN1CCN(c2cc(N(C)Cc3ccccc3)nc(N)n2)CC1
pKb [4]: 6.47
pKb [5]: 6.77

CN1CCN(c2cc(-c3ccc(C#N)cc3)nc(N)n2)CC1
Cmax [6]: 160 ng/mL
Ki [7]: 0.245 µM
IC50 [8]: > 10 µM
Ki [9]: 0.29 µM
inhibition [10]: 71%
concentration at 0.5 h [11]: 12100 ng/g
bioavailability [12]: 31%
EC50 [13]: 0.2 µg/mL (≈ 0.679 µM)
IC50 [14]: > 100 µM
IC50 [15]: > 10 µM
Ki [16]: 0.042 µM
bioavailability [17]: 41%
Activity [18]: 100%
Vd [19]: 7.1 L/kg
Ki [20]: 1.29 µM
ED50 [21]: 34 µmol/kg
EC50 [22]: 0.0589 µM
Cmax [23]: 570 ng/mL
EC50 [24]: 0.123 µM
half-life [25]: 36 min
concentration at 0.5 h [26]: 600 ng/mL
pKb [27]: 6.56
Vd [28]: 3.9 L/kg
inhibition [29]: 99%
Efficacy [30]: 54%
EC50 [31]: 1.62 µM
Cp [32]: 212 ng/mL
Cmax [33]: 92 ng/mL
Ki [34]: 0.074 µM
Ki [35]: 100 µM
concentration at 0.5 h [36]: 1150 ng/mL
ED50 [37]: 32 µmol/kg
Activity [38]: 36%
clearance [39]: 172 mL/min/kg
Ki [40]: > 10 µM
IC50 [41]: > 100 µM
Ki [42]: 0.12 µM
IC50 [43]: > 100 µM
ED50 [44]: 64 µmol/kg
Activity [45]: Non-toxic
inhibition [46]: 92%
IC50 [47]: > 100 µM
Tmax [48]: 24 min
EC50 [49]: 4.68 µM
Efficacy [50]: 92%
inhibition [51]: 86%
Ki [52]: 5.9 µM
Cp [53]: 2468 ng/mL
fraction unbound [54]: 0.33
Cp [55]: 836 ng/mL
inhibition [56]: 53%
Tmax [57]: 15 min
Cmax [58]: 32 ng/mL
clearance [59]: 255 mL/min/kg
Ki [60]: 0.275 µM
Ki [61]: 4.1 µM
Activity [62]: inactive
Ki [63]: 3 µM
